Reference: US10030016B2 (Sunesis Pharmaceuticals, Inc., priority 2009, dated 2018)
Where a name gives a salt, the structure may show the parent alone. Read-outs that look alike come from different tables or passages of the source.

How the values were obtained:
[1] = test system: phospho-akt (Thr308) in PC-3 cells; test: Inhibition of phospho-akt (Thr308) in PC-3 cells, MSD phospho-akt 308 ELISA kit; assay type: cell-based; details: 2 hours, no serum, read-out: EC50
Summary of the method: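 PC-3 cells (15,000/well, overnight in 10% FBS medium) treated 2 h with three-fold diluted compounds in serum-free medium; DMSO high and 5 μM wortmannin low controls. Lysates captured on BSA-blocked MSD plates overnight at 4 °C, then 1 h antibody detection at RT; phospho-Akt Thr308 read by MSD electrochemiluminescence.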

PDK1 = PDK1 (Homo sapiens (Human), UniProt O15530); test: PDK1 kinase assay (coupled PDK1/AKT/FAM-crosstide assay, IMAP fluorescence polarization); assay type: biochemical
Summary of the method: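 PDK1 activity is measured indirectly through activation of a PIFtide-fused AKT2 construct that phosphorylates FAM-crosstide (100 nM). The reaction uses 0.75 nM PDK1, 40 μM ATP, 30 min, 25° C, with IMAP polarization detection.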

[2] = Homo sapiens, inhibition of P308 Akt in PC-3 cells using MSD
[3] = Homo sapiens, inhibition of P308 Akt in PC-3 cells, MSD
[4] = inhibition of phospo-PDK1 in vitro

Chain of PDK1 (O15530 51-359): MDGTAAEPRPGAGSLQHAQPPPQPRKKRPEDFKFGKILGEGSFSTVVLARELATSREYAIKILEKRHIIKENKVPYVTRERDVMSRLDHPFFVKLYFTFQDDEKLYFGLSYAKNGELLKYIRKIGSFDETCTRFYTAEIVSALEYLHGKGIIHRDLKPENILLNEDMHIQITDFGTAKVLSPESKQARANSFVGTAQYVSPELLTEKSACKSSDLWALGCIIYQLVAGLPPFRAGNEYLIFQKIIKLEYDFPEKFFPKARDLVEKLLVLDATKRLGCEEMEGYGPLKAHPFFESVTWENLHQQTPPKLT

Molecule | EC50 [1, 2] [nM] | IC50 (PDK1; inhibition of PDK1 in vitro) [nM] | EC50 [1, 3] [nM] | IC50 (PDK1; [4]) [nM] | EC50 ([1]; inhibition of P308 Akt in PC-3 cells using MSD) [nM]
CNCCCc1nc(-c2ccc(CNc3ncc(C#N)cc3C(=O)N[C@@H](C)c3ccc(F)cc3)cc2)cnc1N [Example 93, 2-{4-[5-Amino-6-(3-methylamino-propyl)-pyrazin-2-yl]-benzyl-amino}-5-cyano-N-[(S)-1-(4-fluoro-phenyl)-ethyl]-nicotinamide] | < 1000 | < 100 | – | – | –
C[C@H](NC(=O)c1nc(C#N)cnc1NCc1ccc(-c2cnc3[nH]nc(N)c3c2)nc1)c1ccc(F)c(F)c1 [Example 58, (S)-3-(((6-(3-amino-1H-pyrazolo[3,4-b]pyridin-5-yl)pyridin-3-yl)methyl)amino)-6-cyano-N-(1-(3,4-difluorophenyl)ethyl) pyrazine-2-carboxamide] | < 1000 | < 100 | – | – | –
Nc1ncnc2ccc(-c3ccc(CNc4ncccc4C(=O)N4CCc5ccccc5C4)s3)cc12 [Example 3.34, 2-({[5-(4-aminoquinazolin-6-yl)thiophen-2-yl]methyl}amino)-pyridin-3-yl](3,4-dihydroiso-quinolin-2(1H)-yl)methanone (TFA salt)] | – | – | 1000 to 10000 | > 5000 | –
C[C@H](NC(=O)c1cc(C#N)cnc1NCc1ccc(-c2cnc(N)c(C(=O)O)n2)cc1)c1ccc(F)cc1 [Example 207, (S)-3-amino-6-(4-((5-cyano-3-(1-(4-fluorophenyl)ethylcarbamoyl)pyridin-2-ylamino)methyl)phenyl)-pyrazine-2-carboxylic acid] | > 10000 | < 100 | – | – | –
Nc1ccc(-c2ccc(CNc3nccc4ncn(Cc5ccc(F)c(F)c5)c(=O)c34)cc2)cn1 [Example 374, 5-(4-(6-aminopyridin-3-yl)benzylamino)-3-(3,4-difluorobenzyl)pyrido[4,3-d] pyrimidin-4(3H)-one] | 1000 to 10000 | < 100 | – | – | –
Nc1n[nH]c2ncc(-c3ccc(CNc4ncc(C(F)(F)F)cc4C(=O)NCc4ccc(Cl)c(F)c4)cc3)cc12 [Example 419, 2-(4-(3-amino-1H-pyrazolo [3,4-b]pyridin-5-yl)benzylamino)-N-(4-chloro-3-fluorobenzyl)-5-(trifluoromethyl)nicotinamide] | 1000 to 10000 | < 100 | – | – | –
C[C@H](NC(=O)c1nc(C#N)cnc1NCc1ccc(-c2cnc(N)c(CCCN)n2)cc1)c1ccc(F)c(F)c1 [Example 94, 3-{4-[5-Amino-6-(3-amino-propyl)-pyrazin-2-yl]-benzyl-amino}-6-cyano-pyrazine-2-carboxylic acid [(S)-1-(3,4-difluoro-phenyl)-ethyl]-amide] | < 1000 | < 100 | – | – | –
C[C@@H](NC(=O)c1nc(C#N)cnc1NCc1ccc(-c2cnc3[nH]nc(N)c3c2)cc1)c1ccc(F)c(F)c1 [Example 417, (R)-3-(4-(3-amino-1H-pyrazolo[3,4-b]pyridin-5-yl)benzylamino)-6-cyano-N-(1-(3,4-difluorophenyl)ethyl) pyrazine-2-carboxamide] | 1000 to 10000 | 100 to 1000 | – | – | –
O=C1Nc2cc(/C=C/CNc3ncccc3C(=O)NCc3ccc(F)c(F)c3)ccc2/C1=C/c1cnc[nH]1 [Example 15.1, 2-((E)-3-((Z)-3-((1H-imidazol-5-yl)methylene)-2-oxoindolin-6-yl)allylamino)-N-(3,4-difluorobenzyl)nicotinamide] | – | – | < 1000 | < 100 | –
Cc1nc(/C=C2\C(=O)Nc3cc(/C=C/CNc4ncccc4C(=O)NCc4ccc(F)c(F)c4)ccc32)[nH]c1C [Example 15.13, N-(3,4-Difluoro-benzyl)-2-((E)-3-{3-[1-(4,5-dimethyl-1H-imidazol-2-yl)-meth-(Z)-ylidene]-2-oxo-2,3-dihydro-1H-indol-6-yl}-allylamino)-nicotinamide] | – | – | 1000 to 10000 | < 100 | –
NCCCc1nc(-c2ccc(CNc3ncc(C(F)(F)F)cc3C(=O)Nc3ccc(F)cc3)cc2)cnc1N [Example 73, 2-{4-[5-Amino-6-(3-amino-propyl)-pyrazin-2-yl]-benzyl-amino}-N-(4-fluoro-phenyl)-5-trifluoromethyl-nicotinamide] | < 1000 | < 100 | – | – | –
C[C@H](NC(=O)c1cc(C#N)cnc1NCc1ccc(-c2cnc3[nH]nc(N)c3c2)nc1)c1ccc(F)cc1 [Example 66, 2-{[6-(3-Amino-1H-pyrazolo[3,4-b]pyridin-5-yl)-pyridin-3-ylmethyl]-amino}-5-cyano-N-[(S)-1-(4-fluoro-phenyl)-ethyl]-nicotinamide] | < 1000 | < 100 | – | – | –
Cn1nc(Nc2ncccc2C(=O)NCc2ccc(F)c(F)c2)c2cc(-c3c[nH]c4ncccc34)ccc21 [Example 14.1, N-(3,4-difluorobenzyl)-2-(1-methyl-5-(1H-pyrrolo[2,3-b]pyridin-3-yl)-1H-indazol-3-ylamino)nicotinamide] | – | – | 1000 to 10000 | < 100 | –
N#Cc1cnc(NCc2ccc(-c3cnc(N)cn3)cc2)c(C(=O)NCc2ccc(F)cc2)c1 [Example 378, 2-(4-(5-aminopyrazin-2-yl)benzylamino)-5-cyano-N-(4-fluorobenzyl) nicotinamide] | 1000 to 10000 | < 100 | – | – | –
C[C@H](NC(=O)c1cccnc1NCc1ccc(-c2c[nH]c3ncnc(N)c23)s1)c1ccc(F)cc1 [Example 2.20, (S)-2-(((5-(4-amino-7H-pyrrolo[2,3-d]pyrimidin-5-yl)thiophen-2-yl)methyl)amino)-N-(1-(4-fluorophenyl)ethyl)nicotinamide] | – | – | < 1000 | 100 to 1000 | –
Nc1cccc(-c2nc(-c3ccc(CNc4ncc(C(F)(F)F)cc4C(=O)Nc4ccc(F)cc4)cc3)cnc2N)c1 [Example 239, 2-{4-[5-Amino-6-(3-amino-phenyl)-pyrazin-2-yl]-benzylamino}-N-(4-fluoro-phenyl)-5-trifluoromethyl-nicotinamide] | 1000 to 10000 | < 100 | – | – | –
C[C@H](NC(=O)c1cc(C(F)(F)F)cnc1NCc1ccc(-c2cnc3[nH]nc(N)c3c2)cc1)c1ccc(Cl)cc1 [Example 277, 2-(4-(3-amino-1H-pyrazolo [3,4-b]pyridin-5-yl)benzylamino)-N-(1-(4-chlorophenyl)ethyl)-5-(trifluoromethyl) nicotinamide] | < 1000 | < 100 | – | – | –
C[C@H](NC(=O)c1nccnc1NCc1ccc(-c2ccc3ncnc(N)c3c2)s1)c1ccc(F)c(F)c1 [Example 3.77, 3-({[5-(4-aminoquinazolin-6-yl)thiophen-2-yl]methyl}amino)-N-[(1S)-1-(3,4-difluorophenyl)ethyl] pyrazine-2-carboxamide (TFA salt)] | – | – | < 1000 | < 100 | –
CC(C)(N)CCc1nc(-c2ccc(CNc3ncc(C(F)(F)F)cc3C(=O)Nc3ccc(F)cc3)cc2)cnc1N [Example 83, 2-{4-[5-Amino-6-(3-amino-3-methyl-butyl)-pyrazin-2-yl]-benzylamino}-N-(4-fluoro-phenyl)-5-trifluoro-methyl-nicotinamide] | < 1000 | < 100 | – | – | –
Nc1n[nH]c2ncc(-c3ccc(CNc4ncc(C(F)(F)F)cc4C(=O)NC4COC4)cc3)cc12 [Example 298, 2-(4-(3-amino-1H-pyrazolo [3,4-b]pyridin-5-yl)benzylamino)-N-(oxetan-3-yl)-5-(trifluoromethyl) nicotinamide] | > 10000 | 1000 to 5000 | – | – | –
C[C@@H](NC(=O)c1cccnc1NCc1ccc(-c2ccc3ncnc(N)c3c2)s1)c1ccc(F)cc1 [Example 3.14, 2-({[5-(4-aminoquinazolin-6-yl)thiophen-2-yl]methyl}amino)-N-[(1R)-1-{4-fluorophenyl)ethyl]pyridine-3-carboxamide (TFA salt)] | – | – | > 10000 | > 5000 | –
N#Cc1cnc(NCc2ccc(-c3ccc4ncnc(N)c4c3)s2)c(C(=O)NCc2ccc(F)c(F)c2)c1 [Ex. 8.8.1, 2-(((5-(4-aminoquinazolin-6-yl)thiophen-2-yl)methyl)amino)-5-cyano-N-(3,4-difluorobenzyl)nicotinamide] | – | – | < 1000 | < 100 | –
2-(4-(3-amino-1H-pyrazolo [3,4-b]pyridin-5-yl) benzylamino)-N-(thiazol- 4-yl)-5-(trifluoromethyl) nicotinamide [Example 287] | – | 100 to 1000 | – | – | > 10000
Nc1ncnc2ccc(-n3cc(CNc4ncccc4C(=O)NCc4ccc(F)c(F)c4)nn3)cc12 [Ex. 9.1, 2-((1-(4-aminoquinazolin-6-yl)-1H-1,2,3-triazol-4-yl)methylamino)-N-(3,4-difluorobenzyl)nicotinamide] | – | – | > 10000 | 100 to 1000 | –
C[C@H](NC(=O)c1cccnc1N[C@@H](COc1ccc([N+](=O)[O-])c(N)c1)c1cccc(Cl)c1)c1ccc(F)c(F)c1 [Example 16.7, 2-((R)-2-(3-amino-4-nitrophenoxy)-1-(3-chlorophenyl)ethylamino)-N-((S)-1-(3,4-difluorophenyl)ethyl)nicotinamide] | – | – | > 10000 | > 5000 | –
Nc1ncnc2ccc(-c3ccc(CNc4nccnc4C(=O)NCc4cccc(F)c4F)s3)cc12 [Example 3.74, 3-({[5-(4-aminoquinazolin-6-yl)thiophen-2-yl]methyl}amino)-N-(2,3-difluorobenzyl)pyrazine-2-carboxamide (TFA salt)] | – | – | > 10000 | 100 to 1000 | –
Nc1ncnc2ccc(-c3ncc(CNc4ncccc4C(=O)NCc4ccc(F)c(F)c4)s3)cc12 [Ex. 6.6, 2-({[2-(4-aminoquinazolin-6-yl)-1,3-thiazol-5-yl]methyl}amino)-N-(3,4-difluoro-benzyl) pyridine-3-carboxamide] | – | – | > 10000 | < 100 | –
